Assay results published in ChEMBL document CHEMBL3832761, “MMV Pathogen Box Bioactivity Data” (2017).

Tests used:
Toxoplasma gondii [1] = assay: AntiToxoplasma gondii activity data Inhibition of plaque forming efficiency (%) Experiment A; format: functional; design: concentration or dose not given beside the values
Toxoplasma gondii [2] = assay: AntiToxoplasma gondii activity data 2-day killing assay: inhibition at 10 uM (%) Experiment C; format: functional; conditions: 48 h
Toxoplasma gondii [3] = assay: AntiToxoplasma gondii activity data 2-day killing assay: inhibition at 10 uM (%) Experiment D; format: functional
Toxoplasma gondii [4] = assay: AntiToxoplasma gondii activity data 2-day killing assay: inhibition at 10 uM (%) Experiment E; format: functional
Toxoplasma gondii [5] = assay: AntiToxoplasma gondii activity data 2-day killing assay: IC50 (uM), Experiment F; format: functional, organism-based; conditions: Toxoplasma gondii, 48 h; read-out: IC50
[6] = HL60 CC50 (uM) Cytotoxicity; format: functional; conditions: HL-60
Schistosoma mansoni [7] = assay: AntiSchistosoma mansoni activity Larva IC50 (uM); format: functional, organism-based
Schistosoma mansoni [8] = assay: AntiSchistosoma mansoni activity Juveniles IC50 (uM); format: functional, organism-based
Schistosoma mansoni [9] = assay: AntiSchistosoma mansoni activity Adults IC50 (uM); format: functional, organism-based
Schistosoma mansoni [10] = assay: AntiSchistosoma mansoni activity Newly Transformed Schistosomula: inhibition at 10 uM at 72h (%); format: functional
HepG2 = assay: Cytotoxicity data HepG2 CC20 (uM); format: functional
MRC5 = assay: MRC5 CC50 (uM) Cytotoxicity; format: functional; conditions: Homo sapiens
Cryptosporidium parvum [11] = assay: AntiCryptosporidium parvum activity Compounds added 3h after t0, IC 50 (uM); format: functional, organism-based
Cryptosporidium parvum [12] = assay: AntiCryptosporidium parvum activity Compounds added at t0, IC 50 (uM); format: functional, organism-based
Brugia pahangi = assay: AntiBrugia pahangi activity Average inhibition motility at 10 uM (%); format: functional
Onchocerca gutturosa [13] = assay: AntiOnchocerca activity O. gutturosa adult males: Motility reduction at 12.5 uM (%); format: functional; design: scale not given: the % may be the effect or the level left
Onchocerca gutturosa [14] = assay: AntiOnchocerca activity O. gutturosa adult males: MTT reduction at 12.5 uM (%); format: functional; design: scale not given: the % may be the effect or the level left
Onchocerca lienalis = assay: AntiOnchocerca activity O. lienalis microfilariae Motility reduction (%); format: functional; design: concentration or dose not given beside the values
Onchocerca ochengi [15] = assay: AntiOnchocerca activity O. ochengi adult females: final mean inhibition motility at 10 uM on Day 7 (%); format: functional
Onchocerca ochengi [16] = assay: AntiOnchocerca activity O. ochengi adult males: final mean inhibition motility at 10 uM on Day 5 (%); format: functional
Onchocerca volvulus = assay: AntiOnchocerca activity O. volvulus L3 Molting assay: inhibition at 10 uM (%); format: functional
Toxoplasma gondii [17] = assay: AntiToxoplasma gondii activity data 2-day killing assay: IC50 (uM), Experiment G; format: functional, organism-based
Schistosoma mansoni [18] = assay: AntiSchistosoma mansoni activity Newly Transformed Schistosomula: IC50 at 72h (uM); format: functional, organism-based
Trypanosoma cruzi = assay: AntiTrypanosoma cruzi activity IC50 (uM); format: functional, organism-based
Trypanosoma brucei [19] = assay: AntiTrypanosoma brucei activity T. b. brucei IC50 (uM); format: functional, organism-based
Trypanosoma brucei [20] = assay: AntiTrypanosoma brucei activity T. b. rhodesiense IC50 (uM); format: functional, organism-based
Leishmania infantum = assay: AntiLeishmania activity L. infantum (macrophages) IC50 (uM); format: functional, organism-based
Leishmania donovani [21] = assay: AntiLeishmania activity L. donovani (axenic) IC50 (uM); format: functional, organism-based
Leishmania donovani [22] = assay: AntiLeishmania activity L. donovani (macrophages) IC50 (uM); format: functional, organism-based
Leishmania = assay: AntiLeishmania activity Toxicity on infected PMM (uM); format: functional
L6 = assay: L6 CC50 (uM) Cytotoxicity; format: functional; conditions: Rattus norvegicus
[23] = PMM CC50 (uM) Cytotoxicity; format: functional; conditions: Macrophage

CN1CCC(c2cc(-c3ccncc3)c(-c3ccc(F)cc3)[nH]2)CC1
Inhibition (Toxoplasma gondii [1]): 100%
inhibition at 10 µM (Toxoplasma gondii [2]): 99.3%
Inhibition (Toxoplasma gondii [3]): 100%
Inhibition (Toxoplasma gondii [4]): 97.9%
IC50 (Toxoplasma gondii [5]): 1210 nM
CC50 [6]: > 50 µM

Cc1ccccc1C(=O)N1N=C(Nc2ccccc2)SC1(C)C
IC50 (Schistosoma mansoni [7]): 6.7 µM
IC50 (Schistosoma mansoni [8]): 5.8 µM
IC50 (Schistosoma mansoni [9]): 5.3 µM
Inhibition (Schistosoma mansoni [10]): 0%
CC20 (HepG2): 8 µM
CC50 (MRC5): > 50 µM

CS(=O)(=O)N1CCC(Cn2nc(Cc3cccc4ccccc34)c3c(N)ncnc32)CC1
IC50 (Cryptosporidium parvum [11]): > 10 µM
IC50 (Cryptosporidium parvum [12]): 100 nM
CC20 (HepG2): 53 µM
CC50 [6]: 47.3 µM

O=C(c1ccc(F)cc1)N(CCNc1ccccc1)c1ccccc1
Inhibition (Brugia pahangi): 17%
Activity (Onchocerca gutturosa [13]): 28.6%
Activity (Onchocerca gutturosa [14]): 0%
Activity (Onchocerca lienalis): 13.3%
Inhibition (Onchocerca ochengi [15]): 0%
Inhibition (Onchocerca ochengi [16]): 0%
Inhibition (Onchocerca volvulus): 89%
CC20 (HepG2): 18.5 µM
CC50 [6]: > 50 µM

CC(C)n1nc(-c2cc3c(Cl)cccc3[nH]2)c2c(N)ncnc21
Inhibition (Toxoplasma gondii [1]): 100%
inhibition at 10 µM (Toxoplasma gondii [2]): 99.6%
Inhibition (Toxoplasma gondii [3]): 100%
Inhibition (Toxoplasma gondii [4]): 99.5%
IC50 (Toxoplasma gondii [5]): 160 nM
CC50 [6]: > 25 µM

CCOc1ccc2cc(-c3nn(C(C)(C)C)c(N)c3C(N)=O)cnc2c1
IC50 (Cryptosporidium parvum [12]): 50 nM

CC(C)(C)n1nc(Cc2cccc3ccccc23)c2c(N)ncnc21
IC50 (Cryptosporidium parvum [11]): > 10 µM
IC50 (Cryptosporidium parvum [12]): 100 nM
CC20 (HepG2): 19 µM
CC50 [6]: 24.1 µM

CCOc1ccc2cc(-c3nn(CC4CCN(C)CC4)c4ncnc(N)c34)ccc2c1
IC50 (Cryptosporidium parvum [12]): 50 nM

COc1ccc(-c2nn(C(C)C)c3ncnc(N)c23)cc1OC
IC50 (Cryptosporidium parvum [11]): 13.9 µM
IC50 (Cryptosporidium parvum [12]): 500 nM
CC20 (HepG2): 1.63 µM
CC50 [6]: 25.1 µM

COC(=O)c1c(NC(=O)c2cc3ccccc3oc2=O)sc2c1CCN(Cc1ccccc1)C2
Inhibition (Brugia pahangi): 10%
Activity (Onchocerca gutturosa [13]): 21.4%
Activity (Onchocerca gutturosa [14]): 0%
Activity (Onchocerca lienalis): 33.3%
Inhibition (Onchocerca ochengi [15]): 8%
Inhibition (Onchocerca ochengi [16]): 0%
Inhibition (Onchocerca volvulus): 100%
CC20 (HepG2): 12.3 µM
CC50 [6]: > 50 µM

Nc1ncnc2[nH]nc(Cc3cccc4ccccc34)c12
Inhibition (Toxoplasma gondii [1]): 100%
inhibition at 10 µM (Toxoplasma gondii [2]): 54.7%
Inhibition (Toxoplasma gondii [3]): 89.2%
Inhibition (Toxoplasma gondii [4]): 63.3%
IC50 (Toxoplasma gondii [5]): 2310 nM
IC50 (Toxoplasma gondii [17]; Toxoplasma gondii, 48 h, read-out: IC50): 3.05 µM
CC50 [6]: > 25 µM

CC(C)(C)n1nc(-c2ccccc2)c2c(N)ncnc21
Inhibition (Toxoplasma gondii [1]): 100%
inhibition at 10 µM (Toxoplasma gondii [2]): 96.5%
Inhibition (Toxoplasma gondii [3]): 100%
Inhibition (Toxoplasma gondii [4]): 97.5%
IC50 (Toxoplasma gondii [5]): 1100 nM
CC50 [6]: > 25 µM

CC(C)C(Oc1cccc2ccccc12)C(=O)O (stereo not given)
IC50 (Cryptosporidium parvum [11]): > 10 µM
IC50 (Cryptosporidium parvum [12]): > 10000 nM
CC20 (HepG2): >80 µM
CC50 [6]: > 50 µM

Cc1cc(OCC(=O)Nc2ccc(C(C)C)cc2)n(C)c(=O)c1C#N
IC50 (Schistosoma mansoni [8]): 3.88 µM
IC50 (Schistosoma mansoni [9]): 7.2 µM
Inhibition (Schistosoma mansoni [10]): 13.3%
CC20 (HepG2): >80 µM

Nc1ncc(-c2ccc(C(F)(F)F)nc2)cc1-c1ccc(C(F)(F)F)nc1
Activity (Onchocerca lienalis): 93%
CC20 (HepG2): >80 µM

Clc1ccc(-n2cc(COc3ccnc4ccccc34)nn2)cc1
IC50 (Cryptosporidium parvum [11]): 1.51 µM
IC50 (Cryptosporidium parvum [12]): > 5000 nM
CC20 (HepG2): 13.6 µM
CC50 [6]: > 50 µM

Nc1nc(N)c2c3c(sc2n1)CN(Cc1ccccc1)CC3
Inhibition (Toxoplasma gondii [1]): 100%
inhibition at 10 µM (Toxoplasma gondii [2]): 54.2%
Inhibition (Toxoplasma gondii [3]): 83.2%
Inhibition (Toxoplasma gondii [4]): 81.6%
IC50 (Toxoplasma gondii [5]): 7060 nM
IC50 (Toxoplasma gondii [17]): no inhibition
CC50 [6]: > 50 µM

COc1ccc(-c2onc(C(F)(F)F)c2-c2ccc(Cl)cc2)c(O)c1
IC50 (Schistosoma mansoni [7]): 3.36 µM
IC50 (Schistosoma mansoni [8]): 7.02 µM
IC50 (Schistosoma mansoni [9]): 5.3 µM
Inhibition (Schistosoma mansoni [10]): 20%
CC50 (MRC5): 8.3 µM

O=C(OCc1ccccc1)N1CCC(c2cc(-c3ccncc3)c(-c3ccc(F)cc3)[nH]2)CC1
Inhibition (Toxoplasma gondii [1]): ~75%
inhibition at 10 µM (Toxoplasma gondii [2]): 77%
Inhibition (Toxoplasma gondii [3]): 76.8%
Inhibition (Toxoplasma gondii [4]): 99.1%
IC50 (Toxoplasma gondii [5]): 870 nM
CC50 [6]: > 50 µM

COc1cc(NC(=O)Cc2nn(C)c(=O)c3ccccc23)ccc1Cl
IC50 (Cryptosporidium parvum [11]): 0.68 µM
IC50 (Cryptosporidium parvum [12]): < 100 nM
CC20 (HepG2): >80 µM
CC50 [6]: > 50 µM

COc1ccc(N(CCc2cccc(C)n2)C(C)=O)cc1
Inhibition (Brugia pahangi): 6%
Activity (Onchocerca gutturosa [13]): 35.7%
Activity (Onchocerca gutturosa [14]): 29.6%
Activity (Onchocerca lienalis): 13.3%
Inhibition (Onchocerca ochengi [15]): 0%
Inhibition (Onchocerca ochengi [16]): 6%
Inhibition (Onchocerca volvulus): 88%
CC20 (HepG2): >80 µM
CC50 [6]: > 50 µM

CS(=O)(=O)c1ccc(C(=O)N(CC2CCCO2)c2nc3ccccc3s2)cc1[N+](=O)[O-] (stereo not given)
IC50 (Schistosoma mansoni [7]): 0.29 µM
IC50 (Schistosoma mansoni [8]): 3.22 µM
IC50 (Schistosoma mansoni [9]): 4.8 µM
Inhibition (Schistosoma mansoni [10]): 100%
CC20 (HepG2): 6.94 µM
CC50 (MRC5): 6.2 µM

CNc1nnc(Sc2cnn(-c3ccccc3)c(=O)c2Cl)s1
IC50 (Schistosoma mansoni [8]): 3.7 µM
Inhibition (Schistosoma mansoni [10]): 100%
IC50 (Schistosoma mansoni [18]): 150 nM
CC20 (HepG2): 1.55 µM

CC(C)(C)n1nc(Cc2ccc(F)c(Cl)c2)c2c(N)ncnc21
Inhibition (Toxoplasma gondii [1]): 100%
inhibition at 10 µM (Toxoplasma gondii [2]): 98.3%
Inhibition (Toxoplasma gondii [3]): 100%
Inhibition (Toxoplasma gondii [4]): 95.5%
IC50 (Toxoplasma gondii [5]): 1700 nM
CC50 [6]: > 25 µM

COc1ccc(OC)c(NCc2ccc3nc(N)nc(N)c3c2Cl)c1
IC50 (Cryptosporidium parvum [11]): 3.98 µM
IC50 (Cryptosporidium parvum [12]): 100 nM
CC20 (HepG2): 3.44 µM
CC50 [6]: > 25 µM

CC(C)(C)c1ccc(N[C@@H]2CCCC[C@H]2NC(=O)c2ccco2)cc1
Inhibition (Brugia pahangi): 3%
Activity (Onchocerca gutturosa [13]): 50%
Activity (Onchocerca gutturosa [14]): 37.7%
Activity (Onchocerca lienalis): 13.3%
Inhibition (Onchocerca ochengi [15]): 0%
Inhibition (Onchocerca ochengi [16]): 1%
Inhibition (Onchocerca volvulus): 80%
CC20 (HepG2): 35.9 µM
CC50 [6]: > 50 µM

Cc1cc(NC(=O)c2ccc(Oc3ccc(Cl)cc3O)o2)no1
Inhibition (Toxoplasma gondii [1]): ~85%
inhibition at 10 µM (Toxoplasma gondii [2]): 70%
Inhibition (Toxoplasma gondii [3]): 64.8%
Inhibition (Toxoplasma gondii [4]): 22%
IC50 (Toxoplasma gondii [5]): 7320 nM
IC50 (Toxoplasma gondii [17]): no inhibition
CC50 [6]: > 50 µM

Nc1ncnc2c1c(Cc1cccc3ccccc13)nn2CC1CCNCC1
IC50 (Cryptosporidium parvum [11]): 25.9 µM
IC50 (Cryptosporidium parvum [12]): 500 nM
CC20 (HepG2): >80 µM
CC50 [6]: > 50 µM

COc1ccc(C(=N)N)cc1-c1cn(-c2ccc(C(=N)N)cc2)nn1
IC50 (Trypanosoma cruzi): 21.5 µM
IC50 (Trypanosoma brucei [19]): 250 nM
IC50 (Trypanosoma brucei [20]): < 0.13 µM
IC50 (Leishmania infantum): > 32 µM
IC50 (Leishmania donovani [21]): 14.3 µM
IC50 (Leishmania donovani [22]): > 30 µM
Toxicity on infected macrophages (Leishmania): 30 µM
CC20 (HepG2): 5.47 µM
CC50 (L6): 26.7 µM
CC50 (MRC5): > 32 µM
CC50 [23]: > 32 µM

Clc1cccc(CO[C@H]2CCc3ccccc3[C@@H]2n2ccnn2)c1
IC50 (Trypanosoma cruzi): 3.08 µM
IC50 (Trypanosoma brucei [19]): > 32000 nM
IC50 (Trypanosoma brucei [20]): > 32 µM
IC50 (Leishmania infantum): > 32 µM
IC50 (Leishmania donovani [21]): 6.6 µM
IC50 (Leishmania donovani [22]): > 30 µM
Toxicity on infected macrophages (Leishmania): >30 µM
CC20 (HepG2): >80 µM
CC50 (L6): 64 µM
CC50 (MRC5): > 32 µM
CC50 [23]: > 32 µM
